Measured values published in paper PMC10378394 (Current Issues in Molecular Biology, 2023).

What was measured:
[1] = biological target: T1, ARAF (Homo sapiens, UniProt P10398); test: KiNativ cell-based kinase assay in HCT116; set-up: purchased Eurofins (Poitiers, France); details: HCT116, full-length protein; read-out: Binding Affinities in HCT116 (EC50)
T1 sequence (P10398 1-606): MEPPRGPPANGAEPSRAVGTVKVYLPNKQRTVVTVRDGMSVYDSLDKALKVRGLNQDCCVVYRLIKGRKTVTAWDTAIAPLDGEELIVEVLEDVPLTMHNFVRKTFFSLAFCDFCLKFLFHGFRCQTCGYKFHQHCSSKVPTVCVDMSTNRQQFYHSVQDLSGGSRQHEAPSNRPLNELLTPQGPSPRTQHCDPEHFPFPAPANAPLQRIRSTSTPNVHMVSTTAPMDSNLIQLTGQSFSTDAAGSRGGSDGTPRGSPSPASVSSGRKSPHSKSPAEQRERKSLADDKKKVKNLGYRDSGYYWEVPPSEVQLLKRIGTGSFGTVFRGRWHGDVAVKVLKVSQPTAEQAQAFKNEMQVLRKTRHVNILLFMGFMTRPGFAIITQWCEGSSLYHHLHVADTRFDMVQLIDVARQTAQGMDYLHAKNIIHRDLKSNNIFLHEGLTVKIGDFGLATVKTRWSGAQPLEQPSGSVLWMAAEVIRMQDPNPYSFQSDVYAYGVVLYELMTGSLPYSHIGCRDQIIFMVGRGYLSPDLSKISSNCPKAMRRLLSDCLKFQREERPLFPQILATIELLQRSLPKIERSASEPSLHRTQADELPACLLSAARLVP
Procedure: (§1) Kinase selectivity profiling in cells was carried out using the KiNativ assay developed by ActivX Biosciences (La Jolla, CA, USA). HCT 116 cells were utilized for the experiment. […] Following the treatment, the cells were lysed, and the lysates were processed for further analysis. Probe labeling was performed using the lysates, and the labeled samples were subjected to LC/MS-MS (Liquid Chromatography/Mass Spectrometry) analysis.

[2] = biological target: CRAF (Homo sapiens, UniProt P04049); test: KiNativ cell-based kinase assay in HCT116; set-up: purchased Eurofins (Poitiers, France)
Procedure: as §1

[3] = biological target: BRAF (Homo sapiens, UniProt P15056); test: KiNativ cell-based kinase assay in HCT116; set-up: purchased Eurofins (Poitiers, France)
Procedure: as §1

[4] = biological target: Bmx(h) (Homo sapiens, UniProt P51813); test: Eurofins kinase assay
[5] = test system: HCT116 (KRAS G13D); test: Cell proliferation assay (CellTiter-Glo); details: Homo sapiens, HCT-116, 72 h
Procedure: (§2) To assess cell viability, the CellTiter-Glo Luminescent Cell Viability Assay Reagent (Promega, Fitchburg, WI, USA) was added to each well. The assay measured ATP levels as an indicator of cell viability. All data points were normalized to the control samples treated with dimethyl sulfoxide when determining IC50 values. Statistical calculations and data analysis, including IC50 determination, were performed using GraphPad Prism software.

[6] = test system: LS513 (KRAS G12D); test: Cell proliferation assay (CellTiter-Glo); details: Homo sapiens, LS-513, 72 h
Procedure: as §2

[7] = biological target: PKCε(h) (Homo sapiens, UniProt Q02156); test: Eurofins kinase assay
[8] = biological target: SGK(h) (Homo sapiens, UniProt O00141); test: Eurofins kinase assay
[9] = biological target: ATR/ATRIP(h) (Homo sapiens, UniProt Q13535); test: Eurofins kinase assay
[10] = biological target: CaMKIIβ(h) (Homo sapiens, UniProt Q13554); test: Eurofins kinase assay
[11] = biological target: CDK7/cyclinH/MAT1(h) (Homo sapiens, UniProt P50613); test: Eurofins kinase assay
[12] = biological target: CK2(h) (Homo sapiens, UniProt P68400); test: Eurofins kinase assay
[13] = biological target: PKBβ(h) (Homo sapiens, UniProt P31751); test: Eurofins kinase assay
[14] = biological target: Rsk1(r) (Rattus norvegicus, UniProt Q63531); test: Eurofins kinase assay
[15] = biological target: CDK5/p35(h) (Homo sapiens, UniProt Q00535); test: Eurofins kinase assay
[16] = HCT116, full-length protein, read-out: Binding Affinities in HCT116 (EC50)
[17] = HCT 116 cells, 2 h, 10 µM, read-out: inhibition of probe binding

Sequence of BRAF (P15056 whole entry): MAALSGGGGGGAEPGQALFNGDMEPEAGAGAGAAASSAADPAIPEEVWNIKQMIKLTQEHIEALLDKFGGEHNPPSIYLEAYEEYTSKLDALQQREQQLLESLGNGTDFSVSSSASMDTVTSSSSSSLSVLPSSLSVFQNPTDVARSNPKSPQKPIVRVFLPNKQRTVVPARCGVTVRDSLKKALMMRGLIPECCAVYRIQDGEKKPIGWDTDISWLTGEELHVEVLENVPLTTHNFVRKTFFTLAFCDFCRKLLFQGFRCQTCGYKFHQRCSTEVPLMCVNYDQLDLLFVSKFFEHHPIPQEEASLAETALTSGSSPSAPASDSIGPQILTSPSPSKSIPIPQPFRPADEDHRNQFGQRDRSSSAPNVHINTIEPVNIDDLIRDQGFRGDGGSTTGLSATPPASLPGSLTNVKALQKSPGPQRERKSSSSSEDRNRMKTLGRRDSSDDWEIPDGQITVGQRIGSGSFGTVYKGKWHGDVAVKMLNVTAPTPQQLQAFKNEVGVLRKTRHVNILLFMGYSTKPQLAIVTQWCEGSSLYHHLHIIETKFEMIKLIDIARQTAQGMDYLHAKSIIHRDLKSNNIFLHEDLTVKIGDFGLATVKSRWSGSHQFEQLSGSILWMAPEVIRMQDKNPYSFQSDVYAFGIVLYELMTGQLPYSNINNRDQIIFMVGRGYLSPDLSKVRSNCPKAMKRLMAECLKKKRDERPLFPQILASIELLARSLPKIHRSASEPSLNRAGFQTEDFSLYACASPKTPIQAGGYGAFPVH
Sequence of CRAF (P04049 whole entry): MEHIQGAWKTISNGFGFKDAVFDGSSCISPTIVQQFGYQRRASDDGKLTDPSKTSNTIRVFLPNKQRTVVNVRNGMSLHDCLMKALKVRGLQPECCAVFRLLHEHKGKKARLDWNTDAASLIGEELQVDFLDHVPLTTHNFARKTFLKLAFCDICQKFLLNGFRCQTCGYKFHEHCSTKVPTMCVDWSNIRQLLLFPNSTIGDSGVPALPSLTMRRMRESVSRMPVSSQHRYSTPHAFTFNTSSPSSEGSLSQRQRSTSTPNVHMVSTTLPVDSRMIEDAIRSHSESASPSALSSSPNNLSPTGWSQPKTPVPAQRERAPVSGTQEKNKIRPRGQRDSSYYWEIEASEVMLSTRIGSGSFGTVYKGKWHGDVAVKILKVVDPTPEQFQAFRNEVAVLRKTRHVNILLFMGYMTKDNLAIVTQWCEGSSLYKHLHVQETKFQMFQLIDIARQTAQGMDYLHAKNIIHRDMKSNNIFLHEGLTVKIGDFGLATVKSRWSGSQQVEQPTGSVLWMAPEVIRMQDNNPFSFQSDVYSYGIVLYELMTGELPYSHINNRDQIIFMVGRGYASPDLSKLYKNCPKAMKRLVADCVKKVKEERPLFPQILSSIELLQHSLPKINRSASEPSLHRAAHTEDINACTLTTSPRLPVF
Sequence of CDK5/p35(h) (Q00535 whole entry): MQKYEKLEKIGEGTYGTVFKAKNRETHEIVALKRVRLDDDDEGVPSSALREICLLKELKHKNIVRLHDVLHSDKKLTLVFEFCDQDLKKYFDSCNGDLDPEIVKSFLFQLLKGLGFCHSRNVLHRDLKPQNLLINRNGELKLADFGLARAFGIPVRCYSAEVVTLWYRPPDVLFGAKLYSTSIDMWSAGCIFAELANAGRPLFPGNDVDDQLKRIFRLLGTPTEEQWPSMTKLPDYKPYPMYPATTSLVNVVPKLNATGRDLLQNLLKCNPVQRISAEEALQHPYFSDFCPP
Sequence of CDK5/p35(h) (Q15078 whole entry partner): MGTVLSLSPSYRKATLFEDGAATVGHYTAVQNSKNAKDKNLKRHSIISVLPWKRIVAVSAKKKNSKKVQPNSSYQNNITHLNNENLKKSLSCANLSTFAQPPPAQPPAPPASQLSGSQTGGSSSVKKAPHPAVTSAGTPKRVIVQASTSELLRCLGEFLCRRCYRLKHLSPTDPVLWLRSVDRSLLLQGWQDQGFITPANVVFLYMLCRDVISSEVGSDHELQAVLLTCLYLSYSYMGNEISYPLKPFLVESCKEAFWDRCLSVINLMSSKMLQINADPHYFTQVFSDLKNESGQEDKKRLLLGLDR
Sequence of Rsk1(r) (Q63531 whole entry): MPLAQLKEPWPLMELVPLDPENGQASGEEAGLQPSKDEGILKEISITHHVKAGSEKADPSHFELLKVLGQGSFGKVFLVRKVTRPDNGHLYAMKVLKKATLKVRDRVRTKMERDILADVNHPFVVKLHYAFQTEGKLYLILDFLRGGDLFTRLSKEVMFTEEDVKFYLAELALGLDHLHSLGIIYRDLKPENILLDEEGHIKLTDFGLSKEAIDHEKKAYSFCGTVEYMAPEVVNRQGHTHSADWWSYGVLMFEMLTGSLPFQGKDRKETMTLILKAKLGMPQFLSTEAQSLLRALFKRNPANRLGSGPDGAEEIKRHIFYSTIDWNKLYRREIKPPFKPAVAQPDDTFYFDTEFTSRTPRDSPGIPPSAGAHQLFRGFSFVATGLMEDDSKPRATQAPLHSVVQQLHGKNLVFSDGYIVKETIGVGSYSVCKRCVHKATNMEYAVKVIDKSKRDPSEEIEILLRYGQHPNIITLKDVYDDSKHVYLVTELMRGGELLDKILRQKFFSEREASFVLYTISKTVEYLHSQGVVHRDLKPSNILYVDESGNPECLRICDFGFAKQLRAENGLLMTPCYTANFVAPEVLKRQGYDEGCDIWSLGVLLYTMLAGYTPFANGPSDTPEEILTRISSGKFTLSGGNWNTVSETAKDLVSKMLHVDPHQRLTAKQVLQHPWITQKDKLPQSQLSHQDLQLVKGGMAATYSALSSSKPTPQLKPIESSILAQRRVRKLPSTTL
Sequence of SGK(h) (O00141 whole entry): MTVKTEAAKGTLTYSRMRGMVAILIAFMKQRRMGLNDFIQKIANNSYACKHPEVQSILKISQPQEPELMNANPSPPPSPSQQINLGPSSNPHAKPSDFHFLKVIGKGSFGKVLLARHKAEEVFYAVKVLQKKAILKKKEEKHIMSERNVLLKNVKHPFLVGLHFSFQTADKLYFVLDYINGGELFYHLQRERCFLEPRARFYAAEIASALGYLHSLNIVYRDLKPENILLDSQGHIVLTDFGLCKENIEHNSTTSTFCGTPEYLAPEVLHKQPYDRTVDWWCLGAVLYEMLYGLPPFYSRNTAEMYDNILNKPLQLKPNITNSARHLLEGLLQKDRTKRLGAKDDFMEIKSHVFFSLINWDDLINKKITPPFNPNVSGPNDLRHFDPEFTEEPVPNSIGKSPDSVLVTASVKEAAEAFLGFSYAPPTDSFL
Sequence of Bmx(h) (P51813 whole entry): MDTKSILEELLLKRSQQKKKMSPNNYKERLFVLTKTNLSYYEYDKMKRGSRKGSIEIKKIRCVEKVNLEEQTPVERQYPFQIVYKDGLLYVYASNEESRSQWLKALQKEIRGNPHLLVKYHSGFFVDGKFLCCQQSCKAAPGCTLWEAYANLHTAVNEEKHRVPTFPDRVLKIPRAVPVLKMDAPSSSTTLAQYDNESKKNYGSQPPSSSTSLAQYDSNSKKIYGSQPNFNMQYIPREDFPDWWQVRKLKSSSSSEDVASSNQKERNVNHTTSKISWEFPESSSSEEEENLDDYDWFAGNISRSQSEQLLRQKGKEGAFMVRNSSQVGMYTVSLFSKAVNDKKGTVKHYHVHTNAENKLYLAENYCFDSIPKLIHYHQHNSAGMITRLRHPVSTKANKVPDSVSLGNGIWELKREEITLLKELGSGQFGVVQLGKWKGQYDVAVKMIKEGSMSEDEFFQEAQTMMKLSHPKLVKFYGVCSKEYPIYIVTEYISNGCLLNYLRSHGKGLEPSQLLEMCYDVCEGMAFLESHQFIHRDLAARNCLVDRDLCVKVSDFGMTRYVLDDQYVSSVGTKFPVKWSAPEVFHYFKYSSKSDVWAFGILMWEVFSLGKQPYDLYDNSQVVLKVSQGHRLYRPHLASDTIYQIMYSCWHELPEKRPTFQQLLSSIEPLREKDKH
Sequence of CDK7/cyclinH/MAT1(h) (P50613 whole entry): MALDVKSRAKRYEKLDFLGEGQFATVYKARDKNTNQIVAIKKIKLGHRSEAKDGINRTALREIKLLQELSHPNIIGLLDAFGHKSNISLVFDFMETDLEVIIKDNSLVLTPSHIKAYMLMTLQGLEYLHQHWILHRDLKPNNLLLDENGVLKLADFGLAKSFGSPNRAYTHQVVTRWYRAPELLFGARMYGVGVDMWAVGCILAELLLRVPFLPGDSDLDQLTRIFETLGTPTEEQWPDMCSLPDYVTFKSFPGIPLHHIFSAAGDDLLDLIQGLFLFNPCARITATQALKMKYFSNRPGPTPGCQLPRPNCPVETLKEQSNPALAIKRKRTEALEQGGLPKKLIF
Sequence of CDK7/cyclinH/MAT1(h) (P51946 whole entry partner): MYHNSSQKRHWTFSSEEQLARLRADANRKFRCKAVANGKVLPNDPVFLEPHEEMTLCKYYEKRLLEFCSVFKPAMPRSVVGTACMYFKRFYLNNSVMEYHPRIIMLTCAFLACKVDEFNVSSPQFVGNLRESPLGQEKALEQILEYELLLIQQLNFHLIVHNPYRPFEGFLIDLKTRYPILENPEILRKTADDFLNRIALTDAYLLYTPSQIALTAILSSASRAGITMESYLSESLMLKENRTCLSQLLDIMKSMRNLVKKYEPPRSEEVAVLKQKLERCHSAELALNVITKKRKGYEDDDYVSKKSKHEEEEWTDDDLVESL
Sequence of CDK7/cyclinH/MAT1(h) (P51948 whole entry partner): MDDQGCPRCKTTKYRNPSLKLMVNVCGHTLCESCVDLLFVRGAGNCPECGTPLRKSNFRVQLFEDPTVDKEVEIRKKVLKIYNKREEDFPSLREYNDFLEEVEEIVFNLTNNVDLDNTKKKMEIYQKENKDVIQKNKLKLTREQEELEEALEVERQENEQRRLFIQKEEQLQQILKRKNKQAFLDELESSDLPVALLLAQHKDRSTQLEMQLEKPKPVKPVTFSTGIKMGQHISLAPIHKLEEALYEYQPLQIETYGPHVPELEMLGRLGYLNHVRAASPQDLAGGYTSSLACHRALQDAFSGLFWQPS

O=C(Nc1cc(Nc2ncccc2-c2ncnc3[nH]cnc23)ccc1F)c1cc(C(F)(F)F)cc(C(F)(F)F)c1 [SJ-C1044, N-(5-(3-(9H-purin-6-yl)pyridin-2-ylamino)-2-fluorophenyl)-3,5-bis(trifluoromethyl)benzamide] showed an EC50 [1] of over 10000 nM, an EC50 [2, 16] of 1400 nM and an inhibition at 10 µM [2, 17] of 83%. The EC50 [3, 16] was 1300 nM, the inhibition at 10 µM [3, 17] was 86% and the inhibition at 10 µM [4] was -1%. The GI50 [5] was 160 nM, the GI50 [6] was 290 nM and the inhibition at 10 µM [7] was -5%. For the same molecule, the inhibition at 10 µM [8] was -34%, the inhibition at 10 µM [9] was 8% and the inhibition at 10 µM [10] was -5%. The inhibition at 10 µM [11] was 10%, the inhibition at 10 µM [12] was -11% and the inhibition at 10 µM [13] was 1%. The inhibition at 10 µM [14] was -12% and the inhibition at 10 µM [15] was -19%.
